# Test system: 4T1 cells or B16 F10 cells
# Assay: Cytotoxic efficacy using MTS assay
# Assay type: cell-based
# Conditions: lower concentrations, 72 h
# Description: Cytotoxic Efficacy of DNTs Using MTS Assay: 5×10^3 4T1 cells or B16 F10 cells per well were seeded in a 96 well plate and left overnight to adhere. The cells were serum starved for 6 h by incubating them in serum free basal medium. The cells were incubated with either free drugs or DNTs of equivalent free drug concentrations for 72 h. The cells were washed with PBS and the medium was replaced with phenol red free DMEM followed by incubation in a mixture of MTS and PMS (1:20) solution for 30 min. Absorbance was measured at 480 nm using a BioTek plate reader. The data was analyzed using graph pad.
compound,measurement,value
"CC1(N)CCN(c2cnc(-c3cccc(Cl)c3Cl)c(N)n2)CC1.Cl.Cl [SHP099, 6-(4-Amino-4-methylpiperidin-1-yl)-3-(2,3-dichlorophenyl)pyrazin-2-amine dihydrochloride]",effect on the viability of cancer cells,did not have a significant effect

# Reference: patent US20210113659A1, “ENGINEERED THERAPEUTIC TO ENHANCE CYTOTOXIC ACTIVITY AND PHAGOCYTOSIS IN TUMOR ASSOCIATED MACROPHAGES” (University of Massachusetts, priority 2019, published 2021)
